The values that follow come from US8377922B2, “Benzazepinone compound” (Ube Industries, Ltd., priority 2007, dated 2013).

In general, IC50 refers to the concentration needed to halve the response being measured.

Structures can show the parent of a compound that is named as a salt.

Experiment [1] deals with αvβ6 expressed cells (HT-29 cells). Put plainly: Cell adhesion test of αvβ6 expressed cell. The following applies: binding to human fibronectin, read-out: αvβ6 expressed cells adhesion inhibiting IC50 value. It is filed as cell-based. As to the method:
The experiment was carried out by partially modifying the method of Goodman et al. (J. Med. Chem., 45, 1045 (2002)).
Human fibronectin (available from CHEMICON) was adjusted to […] with PBS. This was applied on the 96-well plate (MS9586F, available from SUMIRON) with 100 μL/well, coating was carried out at room temperature for 1 hour, and the coating solution was removed and dried. Thereafter, a blocking treatment was carried out with 1.0% BSA dissolved in DMEM for 1 hour, and washed with PBS, and this was used as a coating plate in the adhesion test. HT-29 cells (available from Dainippon Sumitomo Pharma Co., Ltd.) cultured in McCoy's 5A medium containing 10% FBS were detached by using trypsin-ethylenediamine tetraacetic acid, washed with PBS and recovered. Then, the cells were suspended in DMEM to prepare a HT-29 cells suspension. DMEM solution containing the HT-29 cells and a compound to be tested were each added to human fibronectin coating plates each in an amount of 50 μL/well to start the adhesion test.
The adhesion test was carried out in a 5% carbonic acid gas incubator (37° C.) for 2 hours. After completion of the adhesion test, the supernatant was removed by aspiration, and the plates were washed with PBS. Then, Crystal violet staining was carried out, and the number of cells was measured. A concentration (IC50 value) of the compound to be tested necessary for inhibiting 50% of binding to human fibronectin was calculated by using EXSAS (available from Arm Systex Co., Ltd.).

The subject of experiment [2] is αvβ3 expressed cells (HUVEC). Put plainly: Cell adhesion test of αvβ3 expressed cell. It is filed as cell-based. The conditions noted are these: binding to human vitronectin, 50% human serum-containing DMEM, read-out: αvβ3 expressed cells adhesion inhibiting IC50 value. As to the method:
The experiment was carried out by partially modifying the method of Juliano et al. (Exp. Cell Res., 225(1), 132 (1996)).
Human vitronectin (available from CHEMICON) was adjusted to 10 μg/mL with phosphate buffered physiological saline (hereinafter abbreviated as PBS). This was applied onto the 96-well plate (MS9586F, available from SUMIRON) with 100 μL/well, coating was carried out at room temperature for 1 hour, and the coating solution was removed and the plate was dried. Thereafter, blocking treatment was carried out with 1.0% BSA dissolved in Dulbecco's Modified Eagle Medium (hereinafter abbreviated as DMEM) for 1 hour, washed with PBS, and the resulting material was used for the adhesion test as a coating plate. HUVEC (human umbilical endothelial cells) (available from Clonetics Corp.) cultured in endothelian cell basal medium EBM2 (available from Clonetics Corp.) containing EGM-2 SingleQuot Kit suppi. & growth factors EGM2 (available from Clonetics Corp.) and 10% fetal bovine serum (hereinafter abbreviated as FBS) were detached by using trypsin-ethylenediamine tetraacetic acid, washed by using PBS and recovered, and then, suspended in 50% human serum-containing DMEM to prepare cell suspension of HUVEC. […]
The adhesion test was carried out in a 5% carbonic acid gas incubator (37° C.) for 1 hour. […] Crystal violet staining was carried out, and the number of stained cells was measured. […]

Take `CNc1cccc(CCOc2ccc3c(c2)CN(CC(F)(F)F)C(=O)C(CC(=O)O)C3)n1` (racemic) [Compound A, 8-[2-[6-(methylamino)-pyridin-2-yl]-1-ethoxy]-3-oxo-2-(2,2,2-trifluoroethyl)-2,3,4,5-tetrahydro-1H-2-benz-azepin-4-acetic acid, reference compound]: the IC50 in experiment [1] was over 100000 nM.

Consider `O=C(O)CC1Cc2ccc(OCCc3cn4c(n3)NCCC4)cc2CN(CC(F)(F)F)C1=O` (stereo not shown) [Example 2, 3-oxo-8-[2-(5,6,7,8-tetrahydroimidazo[1,2-a]pyrimidin-2-yl)ethoxy]-2-(2,2,2-tri-fluoroethyl)-2,3,4,5-tetrahydro-1H-2-benzazepin-4-acetic acid trifluoroacetate], for which the IC50 in experiment [1] came out at 441 nM; in experiment [2] it was 61 nM.

With `O=C(O)C[C@@H]1Cc2ccc(OCCc3cn4c(n3)NCCC4)cc2CN(CC(F)(F)F)C1=O` [Example 4, (4S)-3-oxo-8-[2-(5,6,7,8-tetrahydroimidazo[1,2-a]pyrimidin-2-yl)ethoxy]-2-(2,2,2-trifluoroethyl)-2,3,4,5-tetrahydro-1H-2-benzazepin-4-acetic acid], in experiment [1], the concentration for half-maximal inhibition (IC50) stood at 296 nM.
